Experimental data published in the NIST ThermoML archive (doi:10.1021/je700308j).
“And” between values parts separate entries of the source, which are not always exact repeats. Identical values can stand only once.

Columns and labels:
[1] = excess molar enthalpy (molar enthalpy of mixing); xn = mol fraction of the nth substance listed; settings: 101 kPa, Liquid, Flow calorimetry
[2] = heat capacity at constant pressure per volume; xn = mol fraction of the nth substance listed; settings: 298.15 K, 101 kPa, Liquid, Flow calorimetry
[3] = xn = mol fraction of the nth substance listed; settings: 298.15 K, 101 kPa, Liquid

C1CCCC1 [cyclopentane] + CCCCCCO
[1], 298.15 K
Settings	excess molar enthalpy
x1 = 0.128	0.116 kJ/mol
x1 = 0.249	0.203 kJ/mol
x1 = 0.362	0.296 kJ/mol
x1 = 0.469	0.374 kJ/mol and 0.375 kJ/mol
x1 = 0.57	0.428 kJ/mol
x1 = 0.665	0.45 kJ/mol
x1 = 0.756	0.438 kJ/mol
x1 = 0.841	0.399 kJ/mol
x1 = 0.923	0.326 kJ/mol
x1 = 0.962	0.259 kJ/mol

C1CCCC1 [cyclopentane] + CCCCCO
[1], 298.15 K
Settings	excess molar enthalpy [kJ/mol]
x1 = 0.113	0.096
x1 = 0.223	0.189
x1 = 0.33	0.282
x1 = 0.434	0.369
x1 = 0.535	0.438
x1 = 0.633	0.481
x1 = 0.728	0.483
x1 = 0.821	0.441
x1 = 0.912	0.355
x1 = 0.956	0.282

C1CCOC1 [tetrahydrofuran] + CCO
Settings	heat capacity, [2] [J/K/m3]	mass density, [3] [kg/m3]
x1 = 0.0532	1907000	792.12
x1 = 0.0989	1889000	798.14
x1 = 0.2018	1849000	810.67
x1 = 0.3084	1808000	822.54
x1 = 0.4	1772000	832.02
x1 = 0.5015	1731000	841.8
x1 = 0.6074	1688000	851.3
x1 = 0.711	1643000	860.02
x1 = 0.8104	1599000	867.85
x1 = 0.9048	1556000	875.03
x1 = 0.9426	1540000	877.76

C1CCCC1 [cyclopentane] + CCCCCCCO
[1], 298.15 K
Settings	excess molar enthalpy [kJ/mol]
x1 = 0.143	0.124
x1 = 0.273	0.232
x1 = 0.392	0.329
x1 = 0.5	0.392
x1 = 0.6	0.434
x1 = 0.692	0.445
x1 = 0.778	0.426
x1 = 0.857	0.386
x1 = 0.931	0.314
x1 = 0.966	0.252

C1CCCC1 [cyclopentane] + CCCCCCCCCO
[1], 298.15 K
Settings	excess molar enthalpy [kJ/mol]
x1 = 0.171	0.175
x1 = 0.316	0.298
x1 = 0.442	0.381
x1 = 0.552	0.421
x1 = 0.649	0.434
x1 = 0.735	0.426
x1 = 0.812	0.403
x1 = 0.881	0.361
x1 = 0.943	0.293
x1 = 0.972	0.229

CCCCCCCCCO [nonan-1-ol] + C1CCOC1
[3]
Settings	mass density [kg/m3]
x2 = 0.1048	827.19
x2 = 0.1889	829.58
x2 = 0.3131	833.79
x2 = 0.4067	837.47
x2 = 0.504	841.9
x2 = 0.6004	847.05
x2 = 0.7009	853.33
x2 = 0.7999	860.89
x2 = 0.9015	870.34

CCCCCCCCCCO [decan-1-ol] + C1CCOC1
Settings	heat capacity, [2] [J/K/m3]	mass density, [3] [kg/m3]
x2 = 0.0904	1904000	828.17
x2 = 0.2067	1869000	831.12
x2 = 0.3967	1810000	837.35
x2 = 0.5985	1734000	846.59
x2 = 0.7992	1635000	860.14
x2 = 0.8981	1573000	869.46

C1CCCC1 [cyclopentane] + CCCCO
[1], 298.15 K
Settings	excess molar enthalpy
x1 = 0.098	0.092 kJ/mol
x1 = 0.196	0.179 kJ/mol
x1 = 0.294	0.267 kJ/mol
x1 = 0.393	0.359 kJ/mol and 0.354 kJ/mol
x1 = 0.493	0.436 kJ/mol
x1 = 0.593	0.496 kJ/mol
x1 = 0.694	0.518 kJ/mol
x1 = 0.796	0.487 kJ/mol
x1 = 0.897	0.394 kJ/mol
x1 = 0.949	0.309 kJ/mol

C1CCOC1 [tetrahydrofuran] + CCCCO
Settings	heat capacity, [2] [J/K/m3]	mass density, [3] [kg/m3]
x1 = 0.0456	1918000	808.89
x1 = 0.0951	1901000	812.34
x1 = 0.1935	1867000	819.24
x1 = 0.2997	1830000	826.84
x1 = 0.3963	1794000	833.86
x1 = 0.5009	1753000	841.67
x1 = 0.5988	1711000	849.16
x1 = 0.6962	1667000	856.68
x1 = 0.8012	1615000	865.12
x1 = 0.9017	1564000	873.45
x1 = 0.9472	1541000	877.34

C1CCOC1 [tetrahydrofuran] + CCCO
Settings	heat capacity, [2] [J/K/m3]	mass density, [3] [kg/m3]
x1 = 0.0482	1911000	804.27
x1 = 0.103	1891000	809.19
x1 = 0.1944	1858000	817.24
x1 = 0.3022	1819000	826.44
x1 = 0.3994	1782000	834.52
x1 = 0.499	1742000	842.64
x1 = 0.5994	1699000	850.66
x1 = 0.7016	1654000	858.7
x1 = 0.795	1610000	866.01
x1 = 0.9017	1560000	874.29
x1 = 0.9435	1541000	877.53

CCCCCCO [hexan-1-ol] + C1CCOC1
Settings	heat capacity, [2] [J/K/m3]	mass density, [3] [kg/m3]
x2 = 0.1191	1886000	820.48
x2 = 0.1994	1862000	824.38
x2 = 0.3032	1829000	829.77
x2 = 0.3931	1800000	834.74
x2 = 0.505	1759000	841.56
x2 = 0.6028	1719000	848.03
x2 = 0.6944	1678000	854.68
x2 = 0.7937	1628000	862.57
x2 = 0.8961	1574000	871.63

C1CCCC1 [cyclopentane] + CCCCCCCCCCO
excess molar enthalpy, [1]
Settings	x1 = 0.336	x1 = 0.465	x1 = 0.575	x1 = 0.67	x1 = 0.752	x1 = 0.89	x1 = 0.975
298.15 K	0.329 kJ/mol and 0.326 kJ/mol	0.404 kJ/mol	0.437 kJ/mol	0.44 kJ/mol	0.424 kJ/mol	0.356 kJ/mol	–
298.65 K	–	–	–	–	–	–	0.207 kJ/mol

C1CCOC1 [tetrahydrofuran] + CCCCCCCCO
Settings	heat capacity, [2] [J/K/m3]	mass density, [3] [kg/m3]
x1 = 0.0608	1927000	823.33
x1 = 0.088	1918000	824.18
x1 = 0.1954	1884000	827.86
x1 = 0.3048	1850000	832.05
x1 = 0.4026	1817000	836.34
x1 = 0.5009	1781000	841.27
x1 = 0.6069	1737000	847.37
x1 = 0.7044	1691000	853.86
x1 = 0.7994	1640000	861.36
x1 = 0.9	1580000	870.65
x1 = 0.9523	1546000	876.26

CCCCCCCCC [nonane] + C1CCOC1
[1], 298.15 K
Settings	excess molar enthalpy [kJ/mol]
x2 = 0.104	0.299
x2 = 0.197	0.517
x2 = 0.355	0.79
x2 = 0.485	0.892
x2 = 0.595	0.889
x2 = 0.688	0.818
x2 = 0.768	0.706
x2 = 0.837	0.562
x2 = 0.898	0.407
x2 = 0.952	0.215

C1CCCC1 [cyclopentane] + CCCCCCCCO
[1], 298.15 K
Settings	excess molar enthalpy [kJ/mol]
x1 = 0.157	0.146
x1 = 0.295	0.265
x1 = 0.418	0.353
x1 = 0.528	0.406
x1 = 0.626	0.433
x1 = 0.715	0.437
x1 = 0.796	0.413
x1 = 0.87	0.372
x1 = 0.938	0.303
x1 = 0.97	0.241

C1CCOC1 [tetrahydrofuran] + CO
Settings	heat capacity, [2] [J/K/m3]	mass density, [3] [kg/m3]
x1 = 0.0989	1907000	804.78
x1 = 0.195	1850000	819.46
x1 = 0.2967	1797000	832.35
x1 = 0.4006	1747000	843.35
x1 = 0.4848	1714000	851
x1 = 0.5999	1667000	859.93
x1 = 0.6968	1631000	866.37
x1 = 0.7926	1594000	871.94
x1 = 0.8946	1555000	877.17

CCCCCCCO [heptan-1-ol] + C1CCOC1
Settings	heat capacity, [2] [J/K/m3]	mass density, [3] [kg/m3]
x2 = 0.1103	1888000	822.54
x2 = 0.2085	1859000	826.55
x2 = 0.3123	1827000	831.18
x2 = 0.4046	1797000	835.76
x2 = 0.496	1765000	840.88
x2 = 0.5973	1725000	847.05
x2 = 0.6977	1680000	854.06
x2 = 0.8031	1627000	862.49
x2 = 0.9021	1572000	871.51
